Measurements: US11484543B2, “Compositions and methods for diagnosing and treating diseases and disorders associated with mutant KCNJ5” (The Rockefeller University, priority 2017, dated 2022)

Key:
[1] = system: CYP11B2 (aldosterone synthase) expression, H295R cells expressing KCNJ5^L168R; assay: Real-time PCR of CYP11B2 in H295R cells transfected with KCNJ5^L168R; format: cell-based, human; conditions: 5, 20 or 50 μM for 18 h; p=0.0034 at 20 μM
Protocol: H295R cells were cultured in DMEM/F12, HEPES (Gibco) supplemented with 2.5% Ultroser G (Pall Biosepra), 1% ITS+ Premix (Corning) and 1% Penicillin/Streptomycin (Gibco). Plasmids were purified using the Endofree Maxi Kit (Qiagen). […] 3×10^6 cells were transfected with 3 μg pIRES eGFP containing no insert, WT or mutant KCNJ5 using an Amaxa Nucleofector I (program P-20) and the Nucleofector Kit R (Lonza). Cells were allowed to recover briefly in RPMI 1640 medium (Gibco). […] After an additional 18 h, RNA was harvested using the RNeasy Mini Kit (Qiagen) following the manufacturer's instructions. 300 ng RNA were transcribed using the Quantitect Reverse Transcription Kit (Qiagen). Expression levels of CYP11B2 and GAPDH were quantified in triplicates in a 7300 Real-Time PCR System (Applied Biosystems) using the Taqman Gene Expression Master Mix and assays Hs01597732_m1 (CYP11B2) or HS02758991_g1 (GAPDH) (all Applied Biosystems). DDCT values were calculated by normalization of DCT values, using the average DCT of vehicle treated empty vector-transfected cells as a reference.
This cell line is derived from a human adrenocortical carcinoma and represents a commonly used in vitro model of zona glomerulosa aldosterone production (Wang et al. 2012, Horm. Metab. Res. 44:245-250). […]

[2] = target: T1, KCNJ5^WT (Homo sapiens, UniProt P48544); assay: Membrane potential assay (FLIPR dye) in inducible KCNJ5^WT HEK293 cells; format: cell-based; conditions: tested as in FIG. 7 (FIGS. 9 and 10)
T1 construct: expressed in transfected cells
T1 sequence (P48544 1-419): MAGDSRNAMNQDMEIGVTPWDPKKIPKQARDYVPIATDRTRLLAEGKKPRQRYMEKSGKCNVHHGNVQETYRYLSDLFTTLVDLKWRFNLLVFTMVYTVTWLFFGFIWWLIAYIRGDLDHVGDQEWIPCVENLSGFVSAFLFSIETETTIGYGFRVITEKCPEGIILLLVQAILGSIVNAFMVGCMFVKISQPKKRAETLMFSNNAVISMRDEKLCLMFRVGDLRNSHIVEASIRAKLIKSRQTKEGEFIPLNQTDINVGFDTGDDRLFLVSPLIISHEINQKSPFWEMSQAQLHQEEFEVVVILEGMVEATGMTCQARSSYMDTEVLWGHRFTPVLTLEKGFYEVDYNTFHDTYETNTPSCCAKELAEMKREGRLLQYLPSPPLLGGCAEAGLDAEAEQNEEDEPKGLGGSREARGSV

For `CC[C@H]1OC(=O)[C@H](C)[C@@H](O[C@H]2C[C@@](C)(OC)[C@@H](O)[C@H](C)O2)[C@H](C)[C@@H](O[C@@H]2O[C@H](C)C[C@H](N(C)C)[C@H]2O)[C@](C)(O)C[C@@H](C)/C(=N\OCOCCOC)[C@H](C)[C@@H](O)[C@]1(C)O` [Roxithromycin, roxithromycin], the “expression of CYP11B2” value [1] was “inhibited expression of CYP11B2 in a dose-dependent fashion”.

“N-demethyl-N-isobutyl-8,9-anhydroerythromycin A 6,9-hemiacetal [PLUX37]” was tested, and the “inhibition of KCNJ5^WT by synthesized macrolide derivatives” value [2] was “no inhibition”.
